Patent publication US8283358B2, “N-sulfonamido polycyclic pyrazolyl compounds” (Elan Pharmaceuticals, Inc., priority 2008, dated 2012)

What follows are molecules tested against T1, gamma-secretase (partially purified extract of IMR-32 cell membranes; substrate MBP-C125 Swe fusion protein, cleavage at the Aβ40 site) (Homo sapiens, UniProt P49768) (assay: Gamma-secretase APP enzyme assay (Example A)). Conditions: class symbols; assay described in Example A; read-out: γAPP IC50.
T1 construct: a partially purified extract of IMR-32 cell membranes as the gamma-secretase enzyme preparation; endogenous in cells; host or cells: IMR-32 cell membranes, partially purified extract
Type: biochemical
Source text: The gamma-secretase APP enzyme assay was designed to measure the specific proteolytic cleavage of an APP substrate (MBP-C125 Swe fusion protein) at the Aβ40 site. […] This assay involved two steps beginning with the enzymatic reaction generating a cleavage product that was captured with an immobilized antibody specific for the neo-epitope Aβ40 site. The captured cleavage product was then detected in a sandwich ELISA assay with a biotinylated reporter antibody that is specific to Aβ(17-28). Streptavidin-linked alkaline phosphatase was then added that would generate a fluorescent signal proportional to the amount of cleavage product.
This warmed solution of BigCHAPS (N,N-Bis(3-D-gluconamidopropyl)cholamide) detergent was used to dissolve Brain Extract Type-V (lipid containing a minimum of 40% phosphatidylethanolamine) from Sigma (St. Louis, Mo.) to a concentration of 8 mg/ml. This solution containing BigCHAPS and lipid at 8 mg/ml is then diluted to 0.53 mg/ml lipid with a pre-warmed solution of Hepes and sodium chloride.
Gamma-secretase was then added to a 96-well micro-titre plate and then incubated with various concentrations of inhibitor for 30 minutes at 37° C. MBPC125 substrate was then added to initiate the reaction that would run for two hours at 37° C. The reaction was quenched with the addition of SDS to a final concentration of 0.1% and then 100 μl of the reaction mixture was transferred to a capture ELISA plate and incubated overnight at 4° C. Detection of the cleavage product was performed using a standard sandwich ELISA assay and quantified using a six point standard curve.
For `O=S(=O)(c1ccc(C(F)(F)F)cc1)N1C2Cc3[nH]ncc3C1c1ccccc12` (racemic) [compound 52], the IC50 was < 100 nM. `O=S(=O)(c1ccc(C(F)(F)F)cc1)N1C2C=C(c3ccc(F)cc3)C1c1cn[nH]c1C2` (racemic) [compound 59] showed an IC50 of 100 to 499 nM. `O=S(=O)(c1ccc(C(F)(F)F)cc1)N1C2Cc3[nH]ncc3C1c1ccccc12` (racemic) [compound 73] was tested, and the IC50 was < 100 nM. In the case of `O=S(=O)(c1ccc(C(F)(F)F)cc1)N1C2c3ccccc3C1C(F)(F)c1[nH]ncc12` (racemic) [compound 74], the IC50 is reported as < 100 nM. With `Cc1cc(C2CC3Cc4[nH]ncc4C(C2)N3S(=O)(=O)c2ccc(Cl)cc2)on1` (racemic) [compound 76] the IC50 was < 100 nM. In the case of `Cc1nc(C2CC3Cc4[nH]ncc4C(C2)N3S(=O)(=O)c2ccc(C(F)(F)F)cc2)n(C)n1` (racemic) [compound 80], the IC50 is reported as 500 to 999 nM. For `Cc1nc(C2CC3Cc4[nH]ncc4C(C2)N3S(=O)(=O)c2ccc(C(F)(F)F)cc2)n[nH]1` (racemic) [compound 85], the IC50 was > 1000 nM. For `O=S(=O)(c1ccc(C(F)(F)F)cc1)N1C2Cc3[nH]ncc3C1c1cc3c(cc12)OCO3` (racemic) [compound 91], the IC50 was < 100 nM. `O=S(=O)(c1ccc(Cl)cc1)N1C2Cc3[nH]ncc3C1CC(c1c[nH]nn1)C2` (racemic) [compound 93] was tested, and the IC50 was < 100 nM. For `O=S(=O)(c1ccc(C(F)(F)F)cc1)N1C2Cc3[nH]ncc3C1c1cccc(F)c12` (racemic) [compound 97], the IC50 was < 100 nM. In the case of `O=S(=O)(c1ccc(C(F)(F)F)nc1)N1C2Cc3n[nH]cc3C1c1cc(F)c(F)cc12` (racemic) [compound 105], the IC50 is reported as < 100 nM. In the case of `O=S(=O)(c1ccc(C(F)(F)F)cc1)N1C2Cc3[nH]ncc3C1CC(c1nnn[nH]1)C2` (racemic) [compound 126], the IC50 is reported as > 1000 nM. In the case of `Cn1nncc1C1CC2Cc3[nH]ncc3C(C1)N2S(=O)(=O)c1ccc(Cl)cc1` (racemic) [compound 136], the IC50 is reported as < 100 nM. With `O=C1COCCN1c1ccc(C2CC3Cc4[nH]ncc4C(C2)N3S(=O)(=O)c2ccc(C(F)(F)F)cc2)cc1` (racemic) [compound 143] the IC50 was 500 to 999 nM. In the case of `O=C(O)COCCNc1ccc(C2CC3Cc4[nH]ncc4C(C2)N3S(=O)(=O)c2ccc(C(F)(F)F)cc2)cc1` (racemic) [compound 145], the IC50 is reported as < 100 nM. `O=S(=O)(c1ccc(C(F)(F)F)cc1)N1C2Cc3[nH]ncc3C1CC(c1ccc(-n3cncn3)cc1)C2` (racemic) [compound 147] gave an IC50 of 100 to 499 nM. With `Cc1cc(F)cc2c1C1c3c[nH]nc3CC2N1S(=O)(=O)c1ccc(C(F)(F)F)nc1` (racemic) [compound 151] the IC50 was < 100 nM. For `CC(=O)Nc1ccc(C2CC3Cc4[nH]ncc4C(C2)N3S(=O)(=O)c2ccc(C(F)(F)F)cc2)cc1` (racemic) [compound 152], the IC50 was < 100 nM. `O=C1CCN1c1ccc(C2CC3Cc4[nH]ncc4C(C2)N3S(=O)(=O)c2ccc(C(F)(F)F)cc2)cc1` (racemic) [compound 153] was tested, and the IC50 was < 100 nM. With `CC(=O)c1ccc(C2CC3Cc4[nH]ncc4C(C2)N3S(=O)(=O)c2ccc(C(F)(F)F)cc2)cc1` (racemic) [compound 154] the IC50 was 100 to 499 nM. In the case of `O=S(=O)(c1ccc(C(F)(F)F)cc1)N1C2Cc3[nH]ncc3C1c1cc(C(F)(F)F)ccc12` (racemic) [compound 155], the IC50 is reported as < 100 nM. In the case of `O=S(=O)(c1ccc(C(F)(F)F)cc1)N1C2Cc3[nH]ncc3C1c1ccc(C(F)(F)F)cc12` (racemic) [compound 156], the IC50 is reported as < 100 nM. With `O=S(=O)(c1ccc(C(F)(F)F)nc1)N1C2c3cc(F)c(F)cc3C1C(F)(F)c1[nH]ncc12` (racemic) [compound 157] the IC50 was < 100 nM. With `O=S(=O)(c1ccc(C(F)(F)F)cc1)N1C2Cc3[nH]ncc3C1c1cccc(-c3ccc(F)cc3)c1C2` (racemic) [compound 162] the IC50 was < 100 nM. For `O=S(=O)(c1ccc(C(F)(F)F)cc1)N1C2Cc3[nH]ncc3C1Cc1ccccc12` (racemic) [compound 163], the IC50 was < 100 nM. For `O=S(=O)(c1ccc(C(F)(F)F)cc1)N1C2Cc3ccccc3C1c1cn[nH]c1C2` (racemic) [compound 164], the IC50 was < 100 nM. With `O=S(=O)(c1ccc(C(F)(F)F)cc1)N1C2Cc3c(-c4ccc(F)cc4)cccc3C1Cc1[nH]ncc12` (racemic) [compound 165] the IC50 was < 100 nM. With `O=S(=O)(c1ccc(C(F)(F)F)nc1)N1C2Cc3[nH]ncc3C1c1cc(F)ccc12` (racemic) [compound 176] the IC50 was < 100 nM. With `O=S(=O)(c1ccc(C(F)(F)F)cc1)N1C2Cc3[nH]ncc3C1c1cccc(-c3cccc(C(F)(F)F)c3)c1C2` (racemic) [compound 178] the IC50 was < 100 nM. In the case of `O=S(=O)(c1ccc(C(F)(F)F)cc1)N1C2Cc3cccc(F)c3C1Cc1n[nH]cc12` (racemic) [compound 181], the IC50 is reported as < 100 nM. With `O=S(=O)(c1ccc(C(F)(F)F)cc1)N1C2Cc3cccc(F)c3C1c1cn[nH]c1C2` (racemic) [compound 182] the IC50 was < 100 nM. `COC(=O)c1ccc2c(c1)C1c3cn[nH]c3CC2N1S(=O)(=O)c1ccc(C(F)(F)F)nc1` (racemic) [compound 194] was tested, and the IC50 was > 1000 nM. `O=S(=O)(c1ccc(Cl)cc1)N1C2Cc3[nH]ncc3C1c1c(F)cccc12` (racemic) [compound 209] was tested, and the IC50 was < 100 nM. In the case of `O=S(=O)(c1ccc(F)cc1)N1C2Cc3[nH]ncc3C1c1c(F)cccc12` (racemic) [compound 210], the IC50 is reported as < 100 nM. `O=S(=O)(c1ccc(C(F)(F)F)cn1)N1C2Cc3[nH]ncc3C1c1c(F)cccc12` (racemic) [compound 211] was tested, and the IC50 was < 100 nM. With `O=S(=O)(c1ccc(C(F)(F)F)nc1)N1C2Cc3[nH]ncc3C1c1cc(Cl)ccc12` (racemic) [compound 219] the IC50 was < 100 nM. With `COC(=O)c1cccc2c1C1Cc3[nH]ncc3C2N1S(=O)(=O)c1ccc(C(F)(F)F)nc1` (racemic) [compound 220] the IC50 was < 100 nM. `O=S(=O)(c1ccc(C(F)(F)F)nc1)N1C2Cc3[nH]ncc3C1c1cc(O)ccc12` (racemic) [compound 225] was tested, and the IC50 was < 100 nM. With `COC(=O)c1cccc2c1C1Cc3[nH]ncc3C2N1S(=O)(=O)C1=CC=C(C(F)(F)F)NC1` (racemic) [compound 253] the IC50 was < 100 nM. With `O=S(=O)(c1ccc(C(F)(F)F)nc1)N1C2Cc3[nH]ncc3C1c1cccc(CF)c12` (racemic) [compound 257] the IC50 was < 100 nM. `O=C1c2[nH]ncc2C2c3cccc(Cl)c3C1N2S(=O)(=O)c1ccc(C(F)(F)F)nc1` (racemic) [compound 264] was tested, and the IC50 was < 100 nM. For `O=S(=O)(c1ccc(C(F)(F)F)nc1)N1C2Cc3[nH]ncc3C1c1cccc(-c3ccc(F)cc3)c12` (racemic) [compound 266], the IC50 was < 100 nM. In the case of `O=S(=O)(c1ccc(C(F)(F)F)nc1)N1C2Cc3[nH]ncc3C1c1cccc(C3CC3)c12` (racemic) [compound 270], the IC50 is reported as < 100 nM. `O=S(=O)(c1ccc(C(F)(F)F)nc1)N1C2Cc3[nH]ncc3C1c1c(C3CC3)cccc12` (racemic) [compound 274] was tested, and the IC50 was < 100 nM. In the case of `O=S(=O)(c1ccc(C(F)(F)F)cc1)N1C2Cc3[nH]ncc3C1c1cccnc12` (single isomer, unassigned) [compound 99], the IC50 is reported as > 1000 nM. For `O=S(=O)(c1ccc(C(F)(F)F)cc1)N1C2Cc3[nH]ncc3C1c1ncccc12` (single isomer, unassigned) [compound 101], the IC50 was < 100 nM. For `O=S(=O)(c1ccc(C(F)(F)F)cc1)N1C2Cc3[nH]ncc3C1c1ncccc12` (single isomer, unassigned) [compound 102], the IC50 was 500 to 999 nM. `O=S(=O)(c1ccc(C(F)(F)F)nc1)N1C2Cc3n[nH]cc3C1c1cc(F)c(F)cc12` (single isomer, unassigned) [compound 110] was tested, and the IC50 was > 1000 nM. In the case of `O=S(=O)(c1ccc(C(F)(F)F)nc1)N1C2Cc3n[nH]cc3C1c1cc(F)c(F)cc12` (single isomer, unassigned) [compound 111], the IC50 is reported as < 100 nM. In the case of `Cn1cc(C2CC3Cc4[nH]ncc4C(C2)N3S(=O)(=O)c2ccc(Cl)cc2)nn1` (single isomer, unassigned) [compound 137], the IC50 is reported as > 1000 nM. `Cn1cc(C2CC3Cc4[nH]ncc4C(C2)N3S(=O)(=O)c2ccc(Cl)cc2)nn1` (single isomer, unassigned) [compound 138] was tested, and the IC50 was 500 to 999 nM.

Same assay, conditions: numeric bounds given instead of class symbols; assay described in Example A; read-out: γAPP IC50
`O=c1oc2cc3c(cc2o1)C1c2cn[nH]c2CC3N1S(=O)(=O)c1ccc(C(F)(F)F)cc1` (racemic) [compound 109] was tested, and the IC50 was > 100 nM. For `O=S(=O)(c1ccc(C(F)(F)F)nc1)N1C2Cc3[nH]ncc3C1c1c(-c3ccc(F)cc3)cccc12` (racemic) [compound 273], the IC50 was > 100 nM.

Same assay, conditions: γAPP IC50 (nM), class symbols; assay described in Example A
With `Cn1ncc2c1C1Cc3[nH]ncc3C2N1S(=O)(=O)c1ccc(C(F)(F)F)nc1` (racemic) [compound 204] the IC50 was < 100 nM. `O=S(=O)(c1ccc(C(F)(F)F)nc1)N1C2Cc3[nH]ncc3C1c1ncc(F)cc12` (racemic) [compound 258] was tested, and the IC50 was < 100 nM. `O=S(=O)(c1ccc(C(F)(F)F)cc1)N1C2Cc3n[nH]cc3C1c1c(F)cccc12` (single isomer, unassigned) [compound 114] showed an IC50 of 500 to 999 nM. With `O=S(=O)(c1ccc(C(F)(F)F)cc1)N1C2Cc3n[nH]cc3C1c1c(F)cccc12` (single isomer, unassigned) [compound 115] the IC50 was < 100 nM.
